Reference: patent US4820694A, “Modifications of 3-O-demethylmycinose in macrocin and lactenocin” (priority 1986, dated 1989)
In brackets after ≈: the same amount, converted by molar mass. Where two headings read alike, the source gives them in different places.

Assays:
[1] = tested on: Streptococcus pyogenes C203; assay: protection of mice experimentally infected with S. pyogenes C203; format: in vivo
Procedure, shortened: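 Mice experimentally infected with S. pyogenes C203 got two doses of test compound, at 1 and 4 h postinfection. The ED50 is the dose in mg/kg (per dose, given twice) that protected 50% of the animals.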

[2] = tested on: Staphylococcus aureus V41; assay: standard agar-dilution MIC assay; format: cell-based; conditions: Staphylococcus aureus, V41
Description: (§1) The MIC's in Table III were determined by standard agar-dilution assays. The MIC's in Table IV were obtained using conventional brothdilution microtiter tests.

[3] = tested on: Staphylococcus epidermidis EP12; assay: standard agar-dilution MIC assay; format: cell-based
Description: as §1

[4] = tested on: Streptococcus pyogenes C203; assay: standard agar-dilution MIC assay; format: cell-based; conditions: Streptococcus pyogenes, C203
Description: as §1

[5] = tested on: Streptococcus Group D 9960; assay: standard agar-dilution MIC assay; format: cell-based; conditions: GROUPD9960, read-out: MIC
Description: as §1

[6] = tested on: Pseudomonas aeruginosa X239; assay: standard agar-dilution MIC assay; format: cell-based; conditions: Pseudomonas aeruginosa, X239
Description: as §1

[7] = tested on: Haemophilus influenzae 76; assay: standard agar-dilution MIC assay; format: cell-based; conditions: Haemophilus influenzae, 76
Description: as §1

[8] = tested on: Haemophilus influenzae C.L.; assay: standard agar-dilution MIC assay; format: cell-based; conditions: Haemophilus influenzae
Description: as §1

Escherichia coli EC14 = assay: standard agar-dilution MIC assay; format: cell-based
Description: as §1

[9] = tested on: Staphylococcus epidermidis EPI1; assay: standard agar-dilution MIC assay; format: cell-based; conditions: Staphylococcus epidermidis, EPI1
Description: as §1

[10] = tested on: Staphylococcus aureus X400; assay: standard agar-dilution MIC assay; format: cell-based; conditions: Staphylococcus aureus, X400
Description: as §1

[11] = tested on: Klebsiella pneumoniae X68; assay: standard agar-dilution MIC assay; format: cell-based; conditions: Klebsiella pneumoniae, X68
Description: as §1

[12] = tested on: Staphylococcus aureus X1.1; assay: standard agar-dilution MIC assay; format: cell-based; conditions: Staphylococcus aureus, X1.1
Description: as §1

[13] = tested on: Streptococcus Group D X66; assay: standard agar-dilution MIC assay; format: cell-based; conditions: read-out: MIC
Description: as §1

[14] = tested on: Streptococcus pneumoniae Park I; assay: microbe, parasite or virus in culture; format: cell-based; conditions: Streptococcus pneumoniae
Description: as §1

[15] = tested on: Staphylococcus aureus S13E; assay: microbe, parasite or virus in culture; format: cell-based; conditions: Staphylococcus aureus, S13E
Description: as §1

[16] = tested on: Pasteurella multocida 40G; assay: broth-dilution microtiter MIC test; format: cell-based; conditions: Pasteurella multocida, 40G
Description: as §1

[17] = tested on: Pasteurella multocida 60A; assay: broth-dilution microtiter MIC test; format: cell-based; conditions: Pasteurella multocida, 60A
Description: as §1

[18] = tested on: Bordetella bronchiseptica; assay: broth-dilution microtiter MIC test; format: cell-based; conditions: Bordetella bronchiseptica
Description: as §1

[19] = tested on: Staphylococcus aureus 19C; assay: broth-dilution microtiter MIC test; format: cell-based; conditions: Staphylococcus aureus, 19C
Description: as §1

Mycoplasma synoviae 40A = assay: broth-dilution microtiter MIC test; format: cell-based; conditions: Mycoplasmopsis synoviae, 40A
Description: as §1

[20] = tested on: Mycoplasma gallisepticum 36H; assay: broth-dilution microtiter MIC test; format: cell-based; conditions: Mycoplasmoides gallisepticum, 36H
Description: as §1

[21] = tested on: Mycoplasma gallisepticum 15E; assay: broth-dilution microtiter MIC test; format: cell-based; conditions: Mycoplasmoides gallisepticum, 15E
Description: as §1

[22] = tested on: Pasteurella hemolytica 23C; assay: broth-dilution microtiter MIC test; format: cell-based; conditions: Pasteurella, 23C
Description: as §1

[23] = tested on: Mycoplasma gallisepticum 29C; assay: broth-dilution microtiter MIC test; format: cell-based; conditions: Mycoplasmoides gallisepticum, 29C
Description: as §1

[24] = tested on: Pasteurella multocida 22A; assay: broth-dilution microtiter MIC test; format: cell-based; conditions: Pasteurella multocida, 22A
Description: as §1

Streptococcus sp. 19F = assay: broth-dilution microtiter MIC test; format: cell-based; conditions: Streptococcus, SP.19F
Description: as §1

[25] = tested on: Pasteurella hemolytica 41D; assay: broth-dilution microtiter MIC test; format: cell-based; conditions: Pasteurella, 41D
Description: as §1

Mycoplasma hyorhinis 29E = assay: broth-dilution microtiter MIC test; format: cell-based; conditions: Mycoplasma, 29E
Description: as §1

[26] = tested on: Pasteurella multocida 68C; assay: broth-dilution microtiter MIC test; format: cell-based; conditions: Pasteurella multocida, 68C
Description: as §1

[27] = tested on: Pasteurella hemolytica 22C; assay: broth-dilution microtiter MIC test; format: cell-based; conditions: Pasteurella, 22C
Description: as §1

[28] = tested on: Pasteurella multocida 17E; assay: broth-dilution microtiter MIC test; format: cell-based; conditions: Pasteurella multocida, 17E
Description: as §1

[29] = tested on: Streptococcus Group D 2041; assay: standard agar-dilution MIC assay; format: cell-based; conditions: GROUPD2041
Description: as §1

[30] = tested on: Staphylococcus epidermidis 222; assay: standard agar-dilution MIC assay; format: cell-based; conditions: Staphylococcus epidermidis, 222
Description: as §1

[31] = agar-dilution, Ampicillin-resistant strain, read-out: MIC
[32] = agar-dilution, Ampicillin-sensitive strain, read-out: MIC

CCC1OC(=O)CC(O)C(C)C(OC2OC(C)C(OC3CC(C)(O)C(O)C(C)O3)C(N(C)C)C2OC(C)=O)C(CC=O)CC(C)C(=O)C=CC(C)=CC1COC1OC(C)C(OC(C)=O)C(OC(=O)Cc2ccccc2)C1OC (stereo not drawn) [Compound 17, 2',4'"-Di-O-acetyl-3'"-O-phenylacetylmacrocin]
ED50 ([1]; C203, sc): > 10 mg/kg
MIC [2]: 2 µg/mL (≈ 1.81 µM)
MIC [3]: 2 µg/mL (≈ 1.81 µM)
MIC [4]: 1 µg/mL (≈ 0.906 µM)
MIC [5]: 2 µg/mL (≈ 1.81 µM)
MIC [6]: > 128 µg/mL
MIC [7]: > 128 µg/mL
MIC [8]: > 128 µg/mL
MIC (Escherichia coli EC14): > 128 µg/mL
MIC [9]: 4 µg/mL (≈ 3.62 µM)
MIC [10]: 4 µg/mL (≈ 3.62 µM)
MIC [11]: > 128 µg/mL
MIC [12]: 2 µg/mL (≈ 1.81 µM)
MIC [13]: 2 µg/mL (≈ 1.81 µM)
MIC [14]: 1 µg/mL (≈ 0.906 µM)
MIC [15]: 4 µg/mL (≈ 3.62 µM)
MIC [16]: > 50 µg/mL
MIC [17]: > 50 µg/mL
MIC [18]: > 50 µg/mL
MIC [19]: 3.12 µg/mL (≈ 2.83 µM)
MIC (Mycoplasma synoviae 40A): 1.56 µg/mL (≈ 1.41 µM)
MIC [20]: 12.5 µg/mL (≈ 11.3 µM)
MIC [21]: 12.5 µg/mL (≈ 11.3 µM)
MIC [22]: > 50 µg/mL
MIC [23]: 0.39 µg/mL (≈ 0.353 µM)
MIC [24]: > 50 µg/mL
MIC (Streptococcus sp. 19F): 1.56 µg/mL (≈ 1.41 µM)
MIC [25]: > 50 µg/mL
MIC (Mycoplasma hyorhinis 29E): 3.12 µg/mL (≈ 2.83 µM)
MIC [26]: > 50 µg/mL
MIC [27]: > 50 µg/mL
MIC [28]: > 50 µg/mL

CCC1OC(=O)CC(O)C(C)C(OC2OC(C)C(O)C(N(C)C)C2O)C(CCOc2ccccc2)CC(C)C(=O)C=CC(C)=CC1COC1OC(C)C(OC(C)=O)C(OC(C)=O)C1OC (stereo not drawn) [Compound 41, 3",4"-Di-O-acetyl-20-DH-20-O-phenyl-lactenocin]
MIC [2]: 16 µg/mL (≈ 17.4 µM)
MIC [4]: 16 µg/mL (≈ 17.4 µM)
MIC ([29]; agar-dilution, read-out: MIC): 128 µg/mL (≈ 139 µM)
MIC ([6]; agar-dilution, read-out: MIC): > 128 µg/mL
MIC [7, 31]: > 128 µg/mL
MIC [30]: 8 µg/mL (≈ 8.69 µM)
MIC [8, 32]: > 128 µg/mL
MIC (Escherichia coli EC14; agar-dilution, read-out: MIC): > 128 µg/mL
MIC [9]: 16 µg/mL (≈ 17.4 µM)
MIC [10]: 16 µg/mL (≈ 17.4 µM)
MIC ([11]; agar-dilution, read-out: MIC): > 128 µg/mL
MIC [12]: 16 µg/mL (≈ 17.4 µM)
MIC [13]: 64 µg/mL (≈ 69.6 µM)
MIC [14]: 16 µg/mL (≈ 17.4 µM)
MIC [15]: 16 µg/mL (≈ 17.4 µM)

CCC1OC(=O)CC(O)C(C)C(OC2OC(C)C(OC(C)=O)C(N(C)C)C2OC(C)=O)C(CCOc2ccccc2)CC(C)C(=O)C=CC(C)=CC1COC1OC(C)C=CC1OC (stereo not drawn) [Compound 42, 2',4'-Di-O-acetyl-3",4"-di(dehydrodeoxy)-20-DH-20-O-phenyl-lactenocin]
MIC [2]: 0.5 µg/mL (≈ 0.564 µM)
MIC [4]: 1 µg/mL (≈ 1.13 µM)
MIC [29]: 4 µg/mL (≈ 4.51 µM)
MIC ([6]; agar-dilution, read-out: MIC): > 128 µg/mL
MIC [7, 31]: > 128 µg/mL
MIC [30]: 0.5 µg/mL (≈ 0.564 µM)
MIC [8, 32]: > 128 µg/mL
MIC (Escherichia coli EC14; agar-dilution, read-out: MIC): > 128 µg/mL
MIC [9]: 1 µg/mL (≈ 1.13 µM)
MIC [10]: 0.5 µg/mL (≈ 0.564 µM)
MIC ([11]; agar-dilution, read-out: MIC): > 128 µg/mL
MIC [12]: 1 µg/mL (≈ 1.13 µM)
MIC [13]: 4 µg/mL (≈ 4.51 µM)
MIC [14]: 1 µg/mL (≈ 1.13 µM)
MIC [15]: 4 µg/mL (≈ 4.51 µM)

CCC1OC(=O)CC(O)C(C)C(OC2OC(C)C(O)C(N(C)C)C2O)C(CCN2C[C@H](C)C[C@H](C)C2)CC(C)C(=O)C=CC(C)=CC1COC1OC(C)C=CC1OC (stereo partly drawn) [Compound 45, 3",4"-Di(dehydrodeoxy)-20-deoxo-20-(cis-3,5-dimethylpiperidin-1-yl)-lactenocin]
MIC ([2]; agar-dilution, Penicillin-resistant strain, read-out: MIC): 0.12 µg/mL (≈ 0.146 µM)
MIC [4]: 0.06 µg/mL (≈ 0.0731 µM)
MIC [29]: 0.5 µg/mL (≈ 0.609 µM)
MIC ([6]; agar-dilution, read-out: MIC): > 128 µg/mL
MIC [7]: 1 µg/mL (≈ 1.22 µM)
MIC ([30]; agar-dilution, read-out: MIC): 0.12 µg/mL (≈ 0.146 µM)
MIC [8]: 1 µg/mL (≈ 1.22 µM)
MIC (Escherichia coli EC14): 64 µg/mL (≈ 77.9 µM)
MIC ([10]; agar-dilution, Methicillin-resistant strain, read-out: MIC): 0.06 µg/mL (≈ 0.0731 µM)
MIC ([11]; agar-dilution, read-out: MIC): 128 µg/mL (≈ 156 µM)
MIC ([12]; agar-dilution, read-out: MIC): 0.12 µg/mL (≈ 0.146 µM)
MIC [13]: 0.25 µg/mL (≈ 0.304 µM)
MIC [14]: 0.06 µg/mL (≈ 0.0731 µM)
MIC [15]: 0.06 µg/mL (≈ 0.0731 µM)

CCC1OC(=O)CC(O)C(C)C(OC2OC(C)C(O)C(N(C)C)C2O)C(CCOc2ccccc2)CC(C)C(=O)C=CC(C)=CC1COC1OC(C)C2OC(C)(C)OC2C1OC (stereo not drawn) [Compound 57, 20-DH-20-O-Phenyl-lactenocin-3",4"-isopropylidene Ketal]
MIC [2]: 4 µg/mL (≈ 4.57 µM)
MIC [4]: 2 µg/mL (≈ 2.28 µM)
MIC [29]: 64 µg/mL (≈ 73.1 µM)
MIC ([6]; agar-dilution, read-out: MIC): > 128 µg/mL
MIC [7, 31]: > 128 µg/mL
MIC [30]: 2 µg/mL (≈ 2.28 µM)
MIC [8, 32]: > 128 µg/mL
MIC (Escherichia coli EC14; agar-dilution, read-out: MIC): > 128 µg/mL
MIC [9]: 4 µg/mL (≈ 4.57 µM)
MIC [10]: 4 µg/mL (≈ 4.57 µM)
MIC ([11]; agar-dilution, read-out: MIC): > 128 µg/mL
MIC [12]: 4 µg/mL (≈ 4.57 µM)
MIC [13]: 32 µg/mL (≈ 36.5 µM)
MIC [14]: 8 µg/mL (≈ 9.13 µM)
MIC [15]: 4 µg/mL (≈ 4.57 µM)

CCC1OC(=O)CC(O)C(C)C(OC2OC(C)C(O)C(N(C)C)C2O)C(CCOc2ccccc2)CC(C)C(=O)C=CC(C)=CC1COC1OC(C)C2OC(=S)OC2C1OC (stereo not drawn) [Compound 59, 20-DH-20-O-Phenyl-lactenocin 3",4"-thiocarbonate]
ED50 ([1]; C203, Oral, mice, mg/kg × 2, doses given 1 and 4 hours postinfection, read-out: ED50): 54 mg/kg
ED50 ([1]; C203, sc, Subcutaneous, mice, mg/kg × 2, doses given 1 and 4 hours postinfection, read-out: ED50): 10 mg/kg
MIC [2]: 1 µg/mL (≈ 1.14 µM)
MIC [4]: 2 µg/mL (≈ 2.28 µM)
MIC [29]: 32 µg/mL (≈ 36.4 µM)
MIC ([6]; agar-dilution, read-out: MIC): > 128 µg/mL
MIC [7, 31]: 128 µg/mL (≈ 146 µM)
MIC [30]: 0.5 µg/mL (≈ 0.569 µM)
MIC [8, 32]: 128 µg/mL (≈ 146 µM)
MIC (Escherichia coli EC14; agar-dilution, read-out: MIC): > 128 µg/mL
MIC [9]: 2 µg/mL (≈ 2.28 µM)
MIC [10]: 1 µg/mL (≈ 1.14 µM)
MIC ([11]; agar-dilution, read-out: MIC): > 128 µg/mL
MIC [12]: 1 µg/mL (≈ 1.14 µM)
MIC [13]: 16 µg/mL (≈ 18.2 µM)
MIC [14]: 2 µg/mL (≈ 2.28 µM)
MIC [15]: 1 µg/mL (≈ 1.14 µM)
